Measurements taken from patent US11414431B2, “Substituted pyrazolo[1,5-a]pyrimidines as TYK2 inhibitors” (Nimbus Lakshmi, Inc., priority 2018, dated 2022).

Experiments:
[1] = test system: IL-12 induced STAT4 phosphorlyation mediated by TYK2/JAK2; assay: IL-12 Induced pSTAT4 in Human PBMC; type: cell-based; conditions: 1.7 ng/mL IL-12 for 30 minutes
Method in brief: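 pSTAT4 and total STAT4 quantified by MSD in lysates of cryopreserved human PBMC after 30-minute stimulation with 1.7 ng/mL IL-12 (final). Compound was added 1 hr beforehand at 37° C, 0.1% DMSO final.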

[2] = molecular target: human TYK2 (JH2domain-pseudokinase) (Homo sapiens (Human), UniProt P29597); assay: TYK2 JH2 Domain Binding Assay (KINOMEscan); conditions: 11-point 3-fold dilution, top concentration 30,000 nM, duplicate; read-out: hTYK2_JH2_Binding (Kd; nM)
Method in brief: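 KINOMEscan competition binding: HEK293-expressed NFkB-fused TYK2 JH2 (G556–D888), DNA-tagged, against immobilized ligand beads, 1 h shaking at room temperature, 0.9% DMSO. Bound kinase quantified by qPCR.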

Sequence of human TYK2 (JH2domain-pseudokinase) (P29597 556-888): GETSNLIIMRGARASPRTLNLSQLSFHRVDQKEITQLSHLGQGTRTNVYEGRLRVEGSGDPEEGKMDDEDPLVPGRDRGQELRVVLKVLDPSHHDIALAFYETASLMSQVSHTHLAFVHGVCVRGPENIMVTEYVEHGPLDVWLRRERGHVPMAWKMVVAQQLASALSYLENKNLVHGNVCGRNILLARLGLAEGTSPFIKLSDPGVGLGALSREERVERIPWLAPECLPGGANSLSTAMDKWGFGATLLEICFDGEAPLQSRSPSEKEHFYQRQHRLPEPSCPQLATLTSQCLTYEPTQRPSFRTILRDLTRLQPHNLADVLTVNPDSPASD

| IC50 [1] [µM] | Kd [2] [nM] | IC50 ([1]; 0.5 h) [µM] | Compound |
| --- | --- | --- | --- |
| < 0.1 | < 0.2 | – | CO[C@@H]1CCC1NC(=O)c1cnn2c3c(c(Nc4cccn([C@H]5[C@@H]6COC[C@@H]65)c4=O)nc12)OCCN3 (stereo partly drawn) [Compound I-762] |
| – | < 0.2 | < 0.1 | CNc1cc(Nc2cccn([C@@H]3CCC[C@](C)(O)C3)c2=O)nc2c(C(=O)NC3CC3)cnn12 [Compound I-3, N-cyclopropyl-5-((1-((1R,3S)-3-hydroxy-3-methylcyclohexyl)-2-oxo-1,2-dihydropyridin-3-yl)amino)-7-(methylamino)pyrazolo[1,5-a]pyrimidine-3-carboxamide] |
| 0.1 to 0.5 | < 0.2 | – | CNc1cc(-c2cnc3n([C@@H]4COC[C@H]4O)cccc2-3)nc2c(C(=O)N[C@@H]3C[C@@H]3F)cnn12 [Compound I-821] |
| < 0.1 | < 0.2 | – | CNc1cc(Nc2cccn(C3CCOCC3)c2=O)nc2c(C(=O)NC3CCC3)cnn12 [Compound I-143] |
| < 0.1 | < 0.2 | – | CNc1cc(-c2cn([C@H]3C[C@@H](COC)C3)c3ncccc23)nc2c(C(=O)N[C@H]3CC[C@@H]3OC)cnn12 [Compound I-933] |
| – | < 0.2 | < 0.1 | CNc1cc(-c2cn([C@H]3CCCOC3)c3ncccc23)nc2c(C(=O)N[C@@H]3CC[C@@H]3O)cnn12 [Compound I-14, N-((1R,2S)-2-Hydroxycyclobutyl)-7-(methylamino)-5-(1-((S)-tetrahydro-2H-pyran-3-yl)-1H-pyrrolo[2,3-b]pyridin-3-yl)pyrazolo[1,5-a]pyrimidine-3-carboxamide] |
| < 0.1 | < 0.2 | – | CC(C)n1cc(-c2nc3c(C(=O)NC4CC[C@H]4O)cnn3c3c2OCCN3)c2cccnc21 (stereo partly drawn) [Compound I-753] |
| < 0.1 | < 0.2 | – | CNc1cc(-c2cn([C@H]3C[C@@H](O)C3)c3ncccc23)nc2c(C(=O)NC3CC3)cnn12 [Compound I-495] |
| < 0.1 | < 0.2 | – | CNc1cc(Nc2cccn([C@H]3[C@@H]4COC[C@@H]43)c2=O)nc2c(C(=O)NC3CCC3)cnn12 [Compound I-142] |
| < 0.1 | < 0.2 | – | CNc1cc(-c2cnc3n([C@H]4CCOC[C@@H]4O)cccc2-3)nc2c(C(=O)NC3CC3)cnn12 [Compound I-819] |
| 0.1 to 0.5 | < 0.2 | – | CNc1cc(-c2cn([C@H]3[C@@H]4COC[C@@H]43)c3ncccc23)nc2c(C(=O)N[C@@H]3CC[C@H]3O)cnn12 [Compound I-960] |
| < 0.1 | < 0.2 | – | CNc1cc(Nc2cccn(-c3ocnc3C)c2=O)nc2c(C(=O)NC3CCC3)cnn12 [Compound I-144] |
| < 0.1 | < 0.2 | – | CC(C)n1cccc(Nc2nc3c(C(=O)N[C@H]4CCC4(F)F)cnn3c3c2OCCN3)c1=O [Compound I-766] |
| < 0.1 | < 0.2 | – | CNc1cc(Nc2cccn([C@H]3C[C@H](F)C3)c2=O)nc2c(C(=O)N[C@H]3C[C@@H]3OC)cnn12 [Compound I-138] |
| < 0.1 | < 0.2 | – | CNc1cc(Nc2cccn([C@H]3CC[C@H](OC)CC3)c2=O)nc2c(C(=O)N[C@H]3C[C@@H]3OC)cnn12 [Compound I-32, 5-((1-((1r,4S)-4-Methoxycyclohexyl)-2-oxo-1,2-dihydropyridin-3-yl)amino)-N-((1S,2S)-2-methoxycyclopropyl)-7-(methylamino)pyrazolo[1,5-a]pyrimidine-3-carboxamide] |
| < 0.1 | < 0.2 | – | CNc1cc(-c2cnc3n([C@@H]4CCOC[C@H]4O)cccc2-3)nc2c(C(=O)N[C@@H]3C[C@@H]3F)cnn12 [Compound I-824] |
| < 0.1 | < 0.2 | – | O=C(N[C@@H]1C[C@@H]1F)c1cnn2c3c(c(Nc4cccc5ocnc45)nc12)OCCN3 [Compound I-752] |

| Compound | IC50 [1] [µM] | Kd [2] [nM] | IC50 ([1]; 0.5 h) [µM] |
| --- | --- | --- | --- |
| N-((cis-1,2)-2-Hydroxycyclobutyl)-5-(1-((1s,3R)-3-hydroxycyclobutyl)-1H-pyrrolo[2,3-b]pyridin-3-yl)-7-(methylamino)pyrazolo[1,5-a]pyrimidine-3-carboxamide [Compound I-111] | 0.1 to 0.5 | < 0.2 | – |
